According to patent publication US7423032B2, “Method for treating severe heart failure and medicament therefor” (Otsuka Pharmaceutical Co., Ltd., priority 2003, dated 2008):

Legend:
Format in all cases: in vivo, human patients
[1] = Mean change in body weight from baseline in patients treated with (A); set-up: Mean change in body weight from baseline: unit not given here
Experimental: (§1) To patients of severe heart failure (i.e., patient in acute heart failure or chronic heart failure in acute exacerbation, New York Heart Association Class III and IV) was administered 5-hydroxy-7-chloro-1-[2-methyl-4-(2-methylbenzoylamino)benzoyl]-2,3,4,5-tetrahydro-1H-benzazepine at a dose of 30, 60 or 90 mg/day for a period of 60 days, which period began from the duration of hospitalization to after being discharged from hospital (details thereof are shown in Table 1).
(§2) As to the statistical analysis, the data in Table 2 was analyzed by ANOVA method, and the data in Tables 3 and 4 were analyzed by ANCOVA method, and the data in Table 5 was analyzed by Log-Rank test.
(§3) When the dosages in this experiment were converted to a daily dose per 1 kg of body weight, they were 0.371±0.096 mg/kg (n=77) in the 30 mg-treated group, 0.769±0.205 mg/kg (n=83) in the 60 mg-treated group, and 1.149±0.283 mg/kg (n=76) in the 90 mg-treated group (all in mean±SD).

[2] = Serum sodium concentration in patients of hyponatremia at baseline treated with (A); conditions: for Serum sodium concentration: mean ± SD
Experimental: as §1
As to the statistical analysis, the data in Table 2 was analyzed by ANOVA method, and the data in Tables 3 and 4 were analyzed by ANCOVA method, and the data in Table 5 was analyzed by Log-Rank test. […]

[3] = Total urine output in patients treated with (A), placebo-controlled Phase IIB study; set-up: Total urine output: unit not given here
Experimental: as §1, §2, §3

[4] = test system: patients of severe heart failure; test: Mortality of the patients treated with (A); conditions: for Mortality Event Rate (%): placebo 8.7%; for Number off Death: on therapy up to 60 days
Experimental: as §1, §2

[5] = Discontinued cases due to adverse experiences in patients treated with (A); conditions: for Discontinuation due to Adverse Experience Event Rate (%): placebo 15.0%
Experimental: as §1
(§4) In addition, in the group treated with the lowest dose of 30 mg, the urinary frequency event rate as an adverse experience was lower (Table 6), and the discontinued rate due to adverse experiences was lower (Table 7), as compared with the data of the groups treated with higher doses.

[6] = Adverse events (urinary frequency) in patients treated with (A); conditions: for Urinary Frequency Event Rate (%): placebo 1.3%
Experimental: as §1, §4

[7] = 30 mg/day oral, 78 patients randomized
[8] = 60 mg/day oral, 84 patients randomized
[9] = 90 mg/day oral, 77 patients randomized
[10] = 30 mg group compared with groups treated with higher doses

Compound: Cc1ccccc1C(=O)Nc1ccc(C(=O)N2CCCC(O)c3cc(Cl)ccc32)c(C)c1 (stereo not drawn) [(A), 5-hydroxy-7-chloro-1-[2-methyl-4-(2-methylbenzoylamino)benzoyl]-2,3,4,5-tetrahydro-1H-benzazepine]
- body weight (in words) ([1]; 30 mg-treated group): decreased
- Mean change in body weight from baseline ([1]; 30 mg/day oral, Day 1, mean ± SD, n=76): −2.14 ± 2.63
- Mean change in body weight from baseline ([1]; 30 mg/day oral, Day 2, mean ± SD, n=63): −3.49 ± 3.80
- Mean change in body weight from baseline ([1]; 30 mg/day oral, Day 3, mean ± SD, n=49): −4.78 ± 4.14
- Mean change in body weight from baseline ([1]; 30 mg/day oral, Discharge, mean ± SD, n=76): −4.37 ± 4.69
- Mean change in body weight from baseline ([1]; 30 mg/day oral, Last Visit, mean ± SD, n=76): −2.42 ± 5.37
- Mean change in body weight from baseline ([1]; 30 mg/day oral, outpatient Week 1, mean ± SD, n=65): −2.71 ± 4.93
- Mean change in body weight from baseline ([1]; 30 mg/day oral, outpatient Week 7, mean ± SD, n=54): −2.12 ± 5.16
- Mean change in body weight from baseline ([1]; 60 mg/day oral, Day 1, mean ± SD, n=76): −2.10 ± 1.80
- Mean change in body weight from baseline ([1]; 60 mg/day oral, Day 2, mean ± SD, n=65): −3.03 ± 2.48
- Mean change in body weight from baseline ([1]; 60 mg/day oral, Day 3, mean ± SD, n=47): −3.93 ± 3.33
- Mean change in body weight from baseline ([1]; 60 mg/day oral, Discharge, mean ± SD, n=82): −4.60 ± 4.67
- Mean change in body weight from baseline ([1]; 60 mg/day oral, Last Visit, mean ± SD, n=82): −3.60 ± 6.38
- Mean change in body weight from baseline ([1]; 60 mg/day oral, outpatient Week 1, mean ± SD, n=59): −2.73 ± 5.45
- Mean change in body weight from baseline ([1]; 60 mg/day oral, outpatient Week 7, mean ± SD, n=54): −2.87 ± 6.67
- Mean change in body weight from baseline ([1]; 90 mg/day oral, Day 1, mean ± SD, n=74): −1.90 ± 2.87
- Mean change in body weight from baseline ([1]; 90 mg/day oral, Day 2, mean ± SD, n=61): −2.84 ± 3.16
- Mean change in body weight from baseline ([1]; 90 mg/day oral, Day 3, mean ± SD, n=45): −2.65 ± 4.22
- Mean change in body weight from baseline ([1]; 90 mg/day oral, Discharge, mean ± SD, n=76): −3.75 ± 4.18
- Mean change in body weight from baseline ([1]; 90 mg/day oral, Last Visit, mean ± SD, n=76): −2.39 ± 5.20
- Mean change in body weight from baseline ([1]; 90 mg/day oral, outpatient Week 1, mean ± SD, n=53): −3.23 ± 4.46
- Mean change in body weight from baseline ([1]; 90 mg/day oral, outpatient Week 7, mean ± SD, n=53): −2.23 ± 5.19
- Serum sodium concentration ([2]; 30 mg group, Baseline, patients of hyponatremia at baseline, n=15): 132.13 ± 3.44 mEq/L
- Serum sodium concentration ([2]; 30 mg/day oral, Day 1, patients of hyponatremia at baseline, n=15): 136.00 ± 3.96 mEq/L
- Serum sodium concentration ([2]; 30 mg/day oral, Day 2, patients of hyponatremia at baseline, n=11): 135.09 ± 5.07 mEq/L
- Serum sodium concentration ([2]; 30 mg/day oral, Day 3, patients of hyponatremia at baseline, n=8): 135.13 ± 5.38 mEq/L
- Serum sodium concentration ([2]; 30 mg/day oral, Discharge, patients of hyponatremia at baseline, n=15): 136.13 ± 4.61 mEq/L
- Serum sodium concentration ([2]; 30 mg/day oral, Last Visit, patients of hyponatremia at baseline, n=15): 137.00 ± 5.04 mEq/L
- Serum sodium concentration ([2]; 30 mg/day oral, outpatient Week 1, patients of hyponatremia at baseline, n=12): 138.25 ± 4.22 mEq/L
- Serum sodium concentration ([2]; 30 mg/day oral, outpatient Week 7, patients of hyponatremia at baseline, n=10): 137.60 ± 4.65 mEq/L
- Serum sodium concentration ([2]; 60 mg group, Baseline, patients of hyponatremia at baseline, n=22): 130.86 ± 4.00 mEq/L
- Serum sodium concentration ([2]; 60 mg/day oral, Day 1, patients of hyponatremia at baseline, n=22): 135.77 ± 6.16 mEq/L
- Serum sodium concentration ([2]; 60 mg/day oral, Day 2, patients of hyponatremia at baseline, n=17): 137.29 ± 3.02 mEq/L
- Serum sodium concentration ([2]; 60 mg/day oral, Day 3, patients of hyponatremia at baseline, n=13): 138.62 ± 4.44 mEq/L
- Serum sodium concentration ([2]; 60 mg/day oral, Discharge, patients of hyponatremia at baseline, n=22): 137.18 ± 4.56 mEq/L
- Serum sodium concentration ([2]; 60 mg/day oral, Last Visit, patients of hyponatremia at baseline, n=22): 136.18 ± 5.94 mEq/L
- Serum sodium concentration ([2]; 60 mg/day oral, outpatient Week 1, patients of hyponatremia at baseline, n=16): 136.88 ± 5.82 mEq/L
- Serum sodium concentration ([2]; 60 mg/day oral, outpatient Week 7, patients of hyponatremia at baseline, n=11): 139.36 ± 4.76 mEq/L
- Serum sodium concentration ([2]; 90 mg group, Baseline, patients of hyponatremia at baseline, n=15): 133.07 ± 2.52 mEq/L
- Serum sodium concentration ([2]; 90 mg/day oral, Day 1, patients of hyponatremia at baseline, n=15): 137.13 ± 4.82 mEq/L
- Serum sodium concentration ([2]; 90 mg/day oral, Day 2, patients of hyponatremia at baseline, n=15): 137.00 ± 4.60 mEq/L
- Serum sodium concentration ([2]; 90 mg/day oral, Day 3, patients of hyponatremia at baseline, n=11): 136.45 ± 4.59 mEq/L
- Serum sodium concentration ([2]; 90 mg/day oral, Discharge, patients of hyponatremia at baseline, n=15): 137.13 ± 3.02 mEq/L
- Serum sodium concentration ([2]; 90 mg/day oral, Last Visit, patients of hyponatremia at baseline, n=15): 136.60 ± 5.17 mEq/L
- Serum sodium concentration ([2]; 90 mg/day oral, outpatient Week 1, patients of hyponatremia at baseline, n=8): 136.13 ± 3.64 mEq/L
- Serum sodium concentration ([2]; 90 mg/day oral, outpatient Week 7, patients of hyponatremia at baseline, n=6): 138.00 ± 5.73 mEq/L
- serum sodium concentration (in words) ([2]; patients of hyponatremia at baseline (less than 136 mEq/L)): increase of serum sodium concentration
- total urine output (in words) ([3]; 30 mg-treated group): increased
- Total urine output ([3]; 30 mg/day oral, Day 1, mean ± SD, n=73): 4056.16 ± 2310.23
- Total urine output ([3]; 30 mg/day oral, Day 2, mean ± SD, n=67): 3905.61 ± 1942.03
- Total urine output ([3]; 30 mg/day oral, Day 3, mean ± SD, n=52): 3579.04 ± 1867.86
- Total urine output ([3]; 30 mg/day oral, Day 6, mean ± SD, n=33): 3146.67 ± 1618.09
- Total urine output ([3]; 30 mg/day oral, Day 7, mean ± SD, n=16): 2662.81 ± 1507.51
- Total urine output ([3]; 30 mg/day oral, Day 9, mean ± SD, n=5): 2908.00 ± 475.59
- Total urine output ([3]; 60 mg/day oral, Day 1, mean ± SD, n=82): 4175.15 ± 2695.44
- Total urine output ([3]; 60 mg/day oral, Day 2, mean ± SD, n=74): 3699.26 ± 2094.02
- Total urine output ([3]; 60 mg/day oral, Day 3, mean ± SD, n=54): 3420.41 ± 1902.77
- Total urine output ([3]; 60 mg/day oral, Day 6, mean ± SD, n=32): 3684.56 ± 2472.45
- Total urine output ([3]; 60 mg/day oral, Day 7, mean ± SD, n=17): 4230.00 ± 1691.43
- Total urine output ([3]; 60 mg/day oral, Day 9, mean ± SD, n=11): 3753.18 ± 2415.48
- Total urine output ([3]; 90 mg/day oral, Day 1, mean ± SD, n=73): 4127.27 ± 2050.81
- Total urine output ([3]; 90 mg/day oral, Day 2, mean ± SD, n=64): 3961.73 ± 2129.11
- Total urine output ([3]; 90 mg/day oral, Day 3, mean ± SD, n=50): 4069.32 ± 2306.07
- Total urine output ([3]; 90 mg/day oral, Day 6, mean ± SD, n=30): 4188.23 ± 2275.15
- Total urine output ([3]; 90 mg/day oral, Day 7, mean ± SD, n=17): 3915.12 ± 2101.53
- Total urine output ([3]; 90 mg/day oral, Day 9, mean ± SD, n=7): 2421.43 ± 1391.12
- mortality rate vs control group (in words) ([4]; 30 mg-treated group, entire period, Log-Rank test): significantly lower
- Mortality Event Rate (%) [4, 7]: 3.8%
- Number off Death [4, 7]: 3
- Mortality Event Rate (%) [4, 8]: 9.5%
- Number off Death [4, 8]: 8
- Mortality Event Rate (%) [4, 9]: 2.5%
- Number off Death [4, 9]: 2
- discontinued rate due to adverse experiences (in words) [5, 10]: lower
- Discontinued cases due to Adverse Experience (number) [5, 7]: 14
- Discontinuation due to Adverse Experience Event Rate (%) [5, 7]: 17.9%
- Discontinued cases due to Adverse Experience (number) [5, 8]: 25
- Discontinuation due to Adverse Experience Event Rate (%) [5, 8]: 29.8%
- Discontinued cases due to Adverse Experience (number) [5, 9]: 17
- Discontinuation due to Adverse Experience Event Rate (%) [5, 9]: 22.1%
- urinary frequency event rate as an adverse experience (in words) [6, 10]: lower
- Adverse Event Urinary Frequency (number of patients) ([6]; 30 mg/day oral, 78 patients): 1
- Urinary Frequency Event Rate (%) ([6]; 30 mg/day oral, 78 patients): 1.3%
- Adverse Event Urinary Frequency (number of patients) ([6]; 60 mg/day oral, 84 patients): 3
- Urinary Frequency Event Rate (%) ([6]; 60 mg/day oral, 84 patients): 3.6%
- Adverse Event Urinary Frequency (number of patients) ([6]; 90 mg/day oral, 76 patients): 4
- Urinary Frequency Event Rate (%) ([6]; 90 mg/day oral, 76 patients): 5.3%
